Source: patent US8481587B2, “Substituted 2-(5-hydroxy-2-methyl-1H-indole-3-yl)acetic acids and ethers thereof and the use of same to treat viral diseases” (priority 2008, dated 2013)
≈ marks a conversion by molar mass, not a printed value. Counter-ions that a name gives are not always drawn. Like-named read-outs stand apart in the source and are kept apart here.

Key:
[1] = tested on: influenza A/New Caledonia/20/99 (H1N1) viruses; assay: microbe, parasite or virus in culture; format: cell-based
cellular line MDCK = conditions: cited from earlier work
influenza virus = conditions: cellular line MDCK, cited from earlier work
[2] = tested on: some other cellular lines; conditions: cited from earlier work
[3] = tested on: hepatisis C viruses (HCV) strain JFH-1; assay: Antiviral activity towards HCV in infected Huh7 cells (core-antigen ELISA); format: cell-based, HCV strain JFH-1 in human hepatoma (Huh7) cells; conditions: Hepatitis C virus, Huh-7; HCV strain JFH-1, Huh7 cells
Method: Determination of antiviral activity of the compounds of the general formula 1 towards hepatisis C viruses. Determination of antiviral activity of the compounds of the general formula 1 towards hepatisis C viruses (HCV) strain JFH-1 in cell culture of human hepatoma (Huh7) infected with HCV.
Cells Huh7 were embedded in 96-well plates (7.5×10^3 cells in every well in 50 μl of nutrient solution). 5×-concentrated solutions of the tested compounds in DMEM medium {DMEM) 1×; the source: Cellgro; Catalogue: 10-013-CV} were prepared just before the usage. In total, four serial fivefold dilutions with concentration ranging from 250 μM to 2 μM were prepared. In 4 hours after cell embedding serial dilutions of the compounds were added to the cells (50 mkl per one well). Each dilution of the examined compound was tested for two identical wells. The final DMSO concentration amounted up to 0.5%. Then, the cells were incubated for 3 hours at 37° C./5% CO2. After the incubation virus (300 tissue culture infective doses in 30 μl per one well) was added to the cells. […]. Then the cells were incubated for 3 hours at 37° C./5% CO2. The cells were fixed by addition acetone/methanol (1:1) mixture in amount of 250 gμl/well. In one minute the cells were washed with Phosphate Buffered Saline (PBS) three times. After that the cells were quenched by addition of 10% solution of fetal calf serum in PBS (150 μl/well) and kept for one hour at room temperature. Then the cells were incubated with mouse monoclonal antibody (100 μl/well) to cor-antigen HCV, clone C7-50 (Source: Affinity BioReagents; Catalogue: MA1-080) (working dilution—1:500 in 10% solution of fetal calf serum in PBS) for two hours at 37° C. The cells were washed 6 times with PBS/0.05% Tween 20 solution and incubated for one hour with peroxidase conjugated goat anti-mouse immunoglobulin (100 μl/well) (working dilution—1:2500 in 10% solution of fetal calf serum in PBS). The cells were washed 6 times with PBS/0.05% Tween 20 solution, then with PBS solution, and 100 μl/well of the substrate (consisting of 1 tablet of oPD, 12 ml of citrate/phosphate buffer and 5 μl of 30% H2O2) were added. The plates were kept for 30 min in darkness at room temperature. The reaction was stopped by addition of 2N […] (100 μl/well), optical density (at 490 nm) was measured with the help of multichannel spectrophotometer Victor3 V 1420 (Perkin Elmer). IC50 values for every tested compound were calculated using XLfit 4 programm.

[4] = influenza A/New Caledonia/20/99 (H1N1), MDCK cells, ELISA, read-out: IC50

Row | Structure (SMILES) | IC50 [1, 4] | IC50 [3] | other results
1 | Cc1c(CC(=O)O)c2cc(O)c(F)cc2n1C [1u(6), 2-(5-hydroxy-1,2-dimethyl-6-fluoro-1H-indol-3-yl)acetic acid] | > 15 µg/mL | – | –
2 | CCOC(=O)c1c(CSc2ccccc2)n(C)c2cc(Br)c(O)c(CN(C)C)c12.Cl [Arbidol, ethyl 6-bromo-4-[(dimethylamino)methyl]-5-hydroxy-1-methyl-2-(phenylthiomethyl)-1H-indole-3-carboxylate hydrochloride] | – | – | TC50 (cellular line MDCK): 62.5 µg/mL; selectivity index (SI50) (influenza virus; for influenza virus): 2.69; IC50 (influenza virus; influenza virus): 23.2 mkg/ml; CC50 [2]: 15 to 25 µg/mL
3 | CN(C)Cc1c(CC(=O)O)c2cc(O)c(-c3cccnc3)cc2n1C [1t(5), 2-(5-hydroxy-2-(dimethylamino)methyl-1-methyl-6-(pyridin-3-yl)-1H-indol-3-yl)acetic acid] | > 15 µg/mL | – | –
4 | COc1ccc2c(c1F)c(CC(=O)O)c(CN(C)C)n2C [1i(13), 2-(2-(dimethylamino)methyl-1-methyl-5-methoxy-4-fluoro-1H-indol-3-yl)acetic acid] | 12 µg/mL (≈ 40.8 µM) | – | –
5 | COC(=O)Cc1c(C)[nH]c2cc(F)c(OC)cc12 [1.2(1), methyl 2-(2-methyl-5-methoxy-6-fluoro-1H-indol-3-yl)acetate] | – | 13 µM | –
6 | COC(=O)Cc1c(C)[nH]c2ccc(OC)c(F)c12 [1.1(1), methyl 2-(2-methyl-5-methoxy-4-fluoro-1H-indol-3-yl)acetate] | – | 38 µM | –
7 | COC(=O)Cc1c(C)n(C(=O)c2ccc(Cl)cc2)c2ccc(OC)c(F)c12 [1e(1), methyl 2-[2-methyl-5-methoxy-4-fluoro-1-(4-chlorobenzoyl)-1H-indol-3-yl]acetate] | – | 39 µM | –
8 | COC(=O)Cc1c(C)n(C)c2cc(C(F)(F)F)c(OC)cc12 [1g(4), methyl 2-(1,2-dimethyl-5-methoxy-6-(trifluoromethyl)-1H-indol-3-yl)acetate] | – | 2.4 µM | –
9 | COC(=O)Cc1c(C)[nH]c2cc(C(F)(F)F)c(OC)cc12 [1.4(1), methyl 2-(2-methyl-5-methoxy-6-(trifluoromethyl)-1H-indol-3-yl)acetate] | > 15 µg/mL | 1.7 µM | –
10 | COC(=O)C(CCN(C)C)c1c(C)n(C)c2cc(C(F)(F)F)c(OC)cc12 (centres unmarked) [1p(2)•HCl, methyl 2-(1,2-dimethyl-5-methoxy-6-(trifluoromethyl)-1H-indol-3-yl)-4-dimethylaminobutyrate] | – | – | IC50 ([1]; H1N1, MDCK): 12 µg/mL
11 | COC(=O)Cc1c(C)n(C)c2cc(F)c(OC)cc12 [1g(2), methyl 2-(1,2-dimethyl-5-methoxy-6-fluoro-1H-indol-3-yl)acetate] | 10 µg/mL (≈ 37.7 µM) | 6.3 µM | –
12 | COC(=O)Cc1c(C)n(C)c2cc(F)c(O)cc12 [1v(1), methyl 2-(5-hydroxy-1,2-dimethyl-6-fluoro-1H-indol-3-yl)acetate] | – | 50 µM | –
